Measured values as given in patent US20190092720A1, “FUNCTIONALIZED BENZAMIDE DERIVATIVES AS ANTIVIRAL AGENTS AGAINST HBV INFECTION” (BARUCH S. BLUMBERG INSTITUTE, priority 2012, published 2019).

What was measured:
[1] = test system: capsid-associated HBV DNA; experiment: Capsid-associated HBV DNA and DNA replication intermediates in AML12HBV10 cells; assay type: cell-based, Hepatitis B virus (HBV); conditions: 2 days, FIG. 1 panels D and E
Procedure: (§1) FIG. 1. Antiviral mechanism of the compounds of the present invention. AML12HBV10 cells were left untreated (NT) or treated with the indicated concentrations of the compounds of the disclosure Compound 6 and Compound 19, respectively, for 2 days. Bay-4109 (3 µM) or AT-61 (25 µM) served as positive controls. (A) Intracellular viral RNA was determined by Northern blot hybridization. Ribosomal RNA served as a loading control. (B) The total amounts of nucleocapsids were determined by a particle gel assay. (C) Encapsidated pgRNA were extracted and measured by Northern blot. (D) Nucleocapsid-associated HBV DNA was quantified by alkaline-treatment of nucleocapsids on the membrane following the particle gel assay and hybridized with a HBV-specific riboprobe. (E) HBV DNA replication intermediates were extracted and determined by Southern blot hybridizations.
(§2) Procedures of viral capsids and nucleocapsid-associated DNA analysis: AML12HB10 cells were lysed by addition of 300 μl buffer containing 10 mM Tris-HCl (pH7.6), 100 mM NaCl, 1 mM EDTA and 0.1% NP-40 to each well of 12-well plate. Cell debries were removed by centrifugation at 5000 g for 10 minutes. Ten microliters of the clarified cell lysates were fractionated by electrophoresis through nondenaturing 1% agarose gels and transferred to a nitrocellulose filter by blotting with TNE buffer (10 mM Tris-HCl, pH7.6; 150 mM NaCl and 1 mM EDTA). HBV capsids were detected by probing the membrane with an antibody against HBV core protein (DAKO). […] To detect capsid associated HBV DNA, the membrane were treated with buffer containing 0.5N NaOH and 1.5 M NaCl for 5 minutes and followed by neutralization with buffer containing 1 M TRIS-HCl and 1.5M NaCl for 5 minutes. The viral DNA was detected by hybridization with a α-^32P-UTP (800 Ci/mmol, Perkin Elmer) labeled minus strand specific full-length HBV riboprobe (Xu et al.).
To analyze the HBV DNA replication intermediates, cells were lysed by adding into each well of the 12-well plates 0.5 ml of lysis buffer containing 10 mM Tris-HCl (pH 8.0), 1 mM EDTA, 1% NP40 and 2% sucrose and incubating at 37° C. for 10 minutes. Cell debris and nuclei were removed by centrifugation and the supernatant was mixed with 130 μl of 35% polyethylene glycol (PEG) 8000 containing 1.5 M NaCl. After 1 hour incubation in ice, viral nucleocapsids were pelleted by centrifugation at 6,000×g for 5 minutes at 4° C., followed by 1 hour digestion at 37° C. in 400 μl of digestion buffer containing 0.5 mg/ml pronase (Calbiochem), 0.5% SDS, 150 mM NaCl, 25 mM Tris-HCl (pH 8.0) and 10 mM EDTA. The digestion mixture was extracted twice with phenol and DNA was precipitated with ethanol, dissolved in TE buffer (10 mM Tris-HCl, pH 8.0; 0.1 mM EDTA). […]

[2] = test system: HBV replication in AML12HBV10 cells; experiment: Antiviral efficacy in AML12HBV10 cells (HBV DNA dot-blot hybridization); assay type: cell-based, Hepatitis B virus (HBV); conditions: Hepatitis B virus, AML12HBV10, 48 h, read-out: AML12HBV10 EC50, concentration that reduces the amount of HBV DNA by 50%, serial dilution 50 μM to 0.39 μM
Procedure: The HBV replication inhibitors of the present invention are capable of treating and preventing diseases associated with HBV infection.
The antiviral efficacy of the compounds of the disclosure, as presented in Table 1, were determined in AML12HBV10 cells. AML12HBV10 is an immortalized murine hepatocyte (AML12)-derived stable cell line that supports robust HBV replication in a tetracycline inducible manner (Xu et al.). The cells were seeded into 96 well plates at a density of 2×10^4 cells per well and cultured in DMEM/F12 media with 10% fetal bovine serum in the absence of tetracycline to allow pgRNA transcription and HBV DNA replication. One day after seeding, cells were left untreated or treated with a serial dilution of testing compounds, ranging from 50 μM to 0.39 μM, for 48 hours. Cells were then lysed by adding into each well of 100 μl lysis buffer containing 10 mM Tris-HCl (pH 7.6), 1 mM EDTA, 100 mM NaCl and 1% NP-40 and incubated at 37° C. for 30 minutes. Half amount (50 μl) of cell lysate from each well was combined with equal volume of denaturing solution containing 0.5N NaOH and 1.5M NaCl. After 5 minute incubation, 100 µl of neutralization solution (1M Tris-HCl, pH 7.4, 1.5M NaCl) was added into each well. The denatured cell lysates (totally 200 μl) were applied onto Nylon membrane using 96-well dot-blot manifold (Biorad). HBV DNA in the cell lysates were determined by dot-blot hybridization with alpha-^32P-UTP-labelled riboprobe specific for HBV minus strand DNA. The antiviral efficacy of a compound of the disclosure was expressed as the concentration that reduces the amount of HBV DNA by 50% (EC50).

HBV capsids = experiment: Particle gel assay of nucleocapsids in AML12HBV10 cells; assay type: cell-based, Hepatitis B virus (HBV); conditions: 2 days, FIG. 1 panel B
Procedure: as §1, §2

HBV mRNA = experiment: Intracellular viral RNA by Northern blot in AML12HBV10 cells; assay type: cell-based, Hepatitis B virus (HBV); conditions: 2 days, FIG. 1 panel A
Procedure: as §1
Procedure for analysis of HBV mRNA: Upon the completion of treatment, total cellular RNA was extracted with TRIzol reagents (Invitrogen). Five micrograms of total RNA was resolved in 1.5% agarose gel containing 2.2 M formadelhyde and transferred onto Hybond-XL membrane in 20×SSC buffer. The amounts of HBV mRNA were determined by Northern blot hybridization with an alpha-^32P-UTP labeled riboprobe specific for plus strand of HBV genome.

[3] = Cytotoxicity in AML12HBV10 cells (MTT assay); assay type: cell-based, murine; conditions: mouse, concentration that reduces viability by 50%, serial dilution 50 μM to 0.39 μM
Procedure: Determination of cytotoxicity of compounds of the disclosure in AML12HBV10 cells: To determine the cytotoxicity of the compounds, AML12HBV10 cells were seeded into 96-well plates at a density of 2×10^4 cells per well and cultured in DMEM/F12 media with 10% fetal bovine serum in the absence of tetracycline to allow pgRNA transcription and HBV DNA replication. One day after seeding, cells were left untreated or treated with a serial dilution of testing compounds, ranging from 50 μM to 0.39 μM, for 48 hours. The cell viability was measured by a MTT assay, following procedure provided by the manufacturer (Promega). The cytotoxicity of a compound was expressed as the concentration of compound that reduces the viability of the cells by 50% (CC50).

**Q.** For `O=C(Nc1cccc(Cl)c1)c1scc2c1OCCO2` [Entry 6], which “capsid-associated HBV DNA / DNA synthesis” value [1] is on record?
**A.** reduced encapsidated pgRNA and capsid-associated HBV DNA in a dose-dependent manner

**Q.** And the EC50 [2]?
**A.** 400 nM

**Q.** What about the capsid formation (HBV capsids) of the same compound?
**A.** did not significantly affect

**Q.** And the “amount of viral mRNA” value (HBV mRNA)?
**A.** did not affect

**Q.** What about the CC50 at 48 h [3] of the same compound?
**A.** > 50000 nM
